Laboratory results published in US8778923B2, “GLP-1 receptor modulators” (Receptos, Inc., priority 2011, dated 2014).

Molecular target: T1, GLP-1R (Homo sapiens, UniProt P43220)
T1 construct: host or cells: CRE-bla CHO-K1
Experiment: EC20 GLP-1(9-36) PAM cAMP assay: dose response of compound in the presence of fixed concentration of GLP-1(9-36)
Type: cell-based
Conditions: GLP-1R CRE-bla CHO-K1 cells, compound dose response in presence of fixed concentration of GLP-1(9-36)
Outline: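 GLP-1R CRE-bla CHO-K1 cells in HBSS/10 mM Hepes/0.1% BSA pH 7.4 with IBMX got a 12-point compound dose response plus fixed EC20 GLP-1(9-36), 30 min at 37 °C. cAMP measured by HitHunter luminescence against a standard curve; EC50 and Emax by non-linear regression.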

T1 sequence (P43220 24-463): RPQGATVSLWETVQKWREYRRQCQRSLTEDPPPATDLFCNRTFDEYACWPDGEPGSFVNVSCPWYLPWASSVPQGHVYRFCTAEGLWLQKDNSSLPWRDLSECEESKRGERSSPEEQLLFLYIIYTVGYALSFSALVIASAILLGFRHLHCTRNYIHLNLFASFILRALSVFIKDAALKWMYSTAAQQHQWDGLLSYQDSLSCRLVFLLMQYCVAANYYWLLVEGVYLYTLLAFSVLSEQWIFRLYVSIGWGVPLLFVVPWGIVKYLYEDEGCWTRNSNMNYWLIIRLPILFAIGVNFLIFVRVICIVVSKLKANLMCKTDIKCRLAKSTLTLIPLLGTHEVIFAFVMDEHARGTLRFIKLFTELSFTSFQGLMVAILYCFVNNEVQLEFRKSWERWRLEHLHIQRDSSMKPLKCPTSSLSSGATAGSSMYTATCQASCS
T1 sequence (P01275 100-127 partner limits assumed): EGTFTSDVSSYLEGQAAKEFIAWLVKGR

## Cc1cccc(-c2cnc(-c3ccc(C[C@H](NC(=O)c4ccc(C(C)(C)C)cc4)C(=O)O)cc3)nc2)c1 [Compound 217]
  EC50: 5 to 10 µM

## CC(C)(C)c1ccc(C(=O)N[C@@H](Cc2ccc(-c3ncc(-c4cccc(-c5ccccc5)c4)cn3)cc2)C(=O)O)cc1 [Compound 218]
  EC50: 2.5 to 5 µM

## CCCCCCCOc1cccc(-c2cnc(-c3ccc(C[C@H](NC(=O)c4ccc(C(C)(C)C)cc4)C(=O)O)cc3)nc2)c1 [Compound 219]
  EC50: 0.8 to 2.5 µM

## CCCCCCCOc1ccccc1-c1cnc(-c2ccc(C[C@H](NC(=O)c3ccc(C(C)(C)C)cc3)C(=O)O)cc2)nc1 [Compound 220]
  EC50: 2.5 to 5 µM

## CCOc1ccc(-c2cnc(-c3ccc(C[C@H](NC(=O)c4ccc(C(C)(C)C)cc4)C(=O)O)cc3)nc2)cc1 [Compound 221]
  EC50: 2.5 to 5 µM

## CCCOc1ccc(-c2cnc(-c3ccc(C[C@H](NC(=O)c4ccc(C(C)(C)C)cc4)C(=O)O)cc3)nc2)cc1 [Compound 222]
  EC50: 0.8 to 2.5 µM

## CCCCOc1ccc(-c2cnc(-c3ccc(C[C@H](NC(=O)c4ccc(C(C)(C)C)cc4)C(=O)O)cc3)nc2)cc1 [Compound 223]
  EC50: 0.8 to 2.5 µM

## CCCCCOc1ccc(-c2cnc(-c3ccc(C[C@H](NC(=O)c4ccc(C(C)(C)C)cc4)C(=O)O)cc3)nc2)cc1 [Compound 224]
  EC50: 0.8 to 2.5 µM

## CCCCCCOc1ccc(-c2cnc(-c3ccc(C[C@H](NC(=O)c4ccc(C(C)(C)C)cc4)C(=O)O)cc3)nc2)cc1 [Compound 225, (S)-2-(4-(tert-butyl)benzamido)-3-(4-(5-(4-(hexyloxy)phenyl)pyrimidin-2-yl)phenyl)propanoic acid]
  EC50: < 0.8 µM

## CC(C)(C)c1ccc(C(=O)N[C@@H](Cc2ccc(-c3ncc(-c4ccc5ccccc5c4)cn3)cc2)C(=O)O)cc1 [Compound 226]
  EC50: 0.8 to 2.5 µM

## Cc1ccc(-c2cnc(-c3ccc(C[C@H](NC(=O)c4ccc(C(C)(C)C)cc4)C(=O)O)cc3)nc2)cc1C [Compound 227]
  EC50: 2.5 to 5 µM

## CCCc1ccc(-c2cnc(-c3ccc(C[C@H](NC(=O)c4ccc(C(C)(C)C)cc4)C(=O)O)cc3)nc2)cc1 [Compound 228]
  EC50: 0.8 to 2.5 µM

## Cc1ccc(-c2ccc(-c3cnc(-c4ccc(C[C@H](NC(=O)c5ccc(C(C)(C)C)cc5)C(=O)O)cc4)nc3)cc2)cc1 [Compound 229]
  EC50: 0.8 to 2.5 µM

## Cc1cccc(-c2ccc(-c3cnc(-c4ccc(C[C@H](NC(=O)c5ccc(C(C)(C)C)cc5)C(=O)O)cc4)nc3)cc2)c1 [Compound 230]
  EC50: 0.8 to 2.5 µM

## CC(C)(C)c1ccc(C(=O)N[C@@H](Cc2ccc(-c3ncc(-c4ccc(COc5ccccc5)cc4)cn3)cc2)C(=O)O)cc1 [Compound 231]
  EC50: 5 to 10 µM

## Cc1cc(-c2cnc(-c3ccc(C[C@H](NC(=O)c4ccc(C(C)(C)C)cc4)C(=O)O)cc3)nc2)ccc1N(C)C [Compound 232]
  EC50: 0.8 to 2.5 µM

## CNc1ccc(-c2cnc(-c3ccc(C[C@H](NC(=O)c4ccc(C(C)(C)C)cc4)C(=O)O)cc3)nc2)cc1 [Compound 233]
  EC50: 2.5 to 5 µM

## CNc1cccc(-c2cnc(-c3ccc(C[C@H](NC(=O)c4ccc(C(C)(C)C)cc4)C(=O)O)cc3)nc2)c1 [Compound 234]
  EC50: 5 to 10 µM

## CC(C)Nc1ccc(-c2cnc(-c3ccc(C[C@H](NC(=O)c4ccc(C(C)(C)C)cc4)C(=O)O)cc3)nc2)cc1 [Compound 235]
  EC50: 2.5 to 5 µM

## CC(C)(C)c1ccc(C(=O)N[C@@H](Cc2ccc(-c3ncc(-c4ccc5c(c4)CCCN5)cn3)cc2)C(=O)O)cc1 [Compound 236]
  EC50: 5 to 10 µM

## CCCCOc1ccc(-c2cnc(-c3ccc(C[C@H](NC(=O)c4ccc(C(C)(C)C)s4)C(=O)O)cc3)nc2)cc1 [Compound 237]
  EC50: 0.8 to 2.5 µM

## CCCCCOc1ccc(-c2cnc(-c3ccc(C[C@H](NC(=O)c4ccc(C(C)(C)C)s4)C(=O)O)cc3)nc2)cc1 [Compound 238]
  EC50: 0.8 to 2.5 µM

## CCCCCCOc1ccc(-c2cnc(-c3ccc(C[C@H](NC(=O)c4ccc(C(C)(C)C)s4)C(=O)O)cc3)nc2)cc1 [Compound 239]
  EC50: 0.8 to 2.5 µM

## CC(C)(C)c1ccc(C(=O)N[C@@H](Cc2ccc(-c3ncc(-c4ccc(C(F)(F)F)cc4)cn3)cc2)C(=O)O)s1 [Compound 240]
  EC50: 2.5 to 5 µM

## CC(C)Oc1ccc(-c2cnc(-c3ccc(C[C@H](NC(=O)c4ccc(C(C)(C)C)s4)C(=O)O)cc3)nc2)cc1 [Compound 241]
  EC50: 0.8 to 2.5 µM

## CC(C)c1ccc(-c2cnc(-c3ccc(C[C@H](NC(=O)c4ccc(C(C)(C)C)s4)C(=O)O)cc3)nc2)cc1 [Compound 242]
  EC50: 0.8 to 2.5 µM

## CC(C)Cc1ccc(-c2cnc(-c3ccc(C[C@H](NC(=O)c4ccc(C(C)(C)C)s4)C(=O)O)cc3)nc2)cc1 [Compound 243]
  EC50: 0.8 to 2.5 µM

## CC(C)(C)c1ccc(C(=O)N[C@@H](Cc2ccc(-c3ncc(-c4ccc(OC5CC5)cc4)cn3)cc2)C(=O)O)s1 [Compound 244]
  EC50: 2.5 to 5 µM

## CC(C)(C)c1ccc(C(=O)N[C@@H](Cc2ccc(-c3ncc(-c4ccc5ccccc5c4)cn3)cc2)C(=O)O)s1 [Compound 245]
  EC50: 0.8 to 2.5 µM

## Cc1ccc(-c2ccc(-c3cnc(-c4ccc(C[C@H](NC(=O)c5ccc(C(C)(C)C)s5)C(=O)O)cc4)nc3)cc2)cc1 [Compound 246]
  EC50: 0.8 to 2.5 µM

## Cc1cccc(-c2ccc(-c3cnc(-c4ccc(C[C@H](NC(=O)c5ccc(C(C)(C)C)s5)C(=O)O)cc4)nc3)cc2)c1 [Compound 247]
  EC50: 0.8 to 2.5 µM

## CCCCCCCCCCOc1ccc(-c2cnc(-c3ccc(C[C@H](NC(=O)c4ccc(C(C)(C)C)s4)C(=O)O)cc3)nc2)cc1 [Compound 249, (S)-2-(5-(tert-butyl)thiophene-2-carboxamido)-3-(4-(5-(4-(decyloxy)phenyl)-pyrimidin-2-yl)phenyl)propanoic acid]
  EC50: 5 to 10 µM

## CCCCCCCCCCCCOc1ccc(-c2cnc(-c3ccc(C[C@H](NC(=O)c4ccc(C(C)(C)C)s4)C(=O)O)cc3)nc2)cc1 [Compound 250]
  EC50: 0.8 to 2.5 µM

## CCCCCCCCCCCCCCOc1ccc(-c2cnc(-c3ccc(C[C@H](NC(=O)c4ccc(C(C)(C)C)s4)C(=O)O)cc3)nc2)cc1 [Compound 251]
  EC50: 5 to 10 µM

## CCCCCCCCCCCCCCCCOc1ccc(-c2cnc(-c3ccc(C[C@H](NC(=O)c4ccc(C(C)(C)C)s4)C(=O)O)cc3)nc2)cc1 [Compound 252]
  EC50: 5 to 10 µM

## CC(C)(C)c1ccc(C(=O)N[C@@H](Cc2ccc(-c3ncc(N4CCC(C(C)(C)C)CC4)cn3)cc2)C(=O)O)cc1 [Compound 253, (S)-2-(4-(tert-butyl)benzamido)-3-(4-(5-(4-(tert-butyl)piperidin-1-yl)pyrimidin-2-yl)phenyl)propanoic acid]
  EC50: 2.5 to 5 µM

## CCCCCCCN1CCN(c2cnc(-c3ccc(C[C@H](NC(=O)c4ccc(C(C)(C)C)cc4)C(=O)O)cc3)nc2)CC1 [Compound 254]
  EC50: 0.8 to 2.5 µM

## CCCCCCCn1nnnc1-c1cnc(-c2ccc(C[C@H](NC(=O)c3ccc(C(C)(C)C)cc3)C(=O)O)cc2)nc1 [Compound 255]
  EC50: 5 to 10 µM

## CCCCCCOC1=NCc2cc(-c3cnc(-c4ccc(C[C@H](NC(=O)c5ccc(C(C)(C)C)cc5)C(=O)O)cc4)nc3)ccc21 [Compound 256]
  EC50: 5 to 10 µM

## CCCCCCOc1ccc(-c2cnc(-c3ccc(C[C@H](NC(=O)c4ccc(C(C)(C)C)cc4)C(=O)O)cc3)nc2)cn1 [Compound 257]
  EC50: 0.8 to 2.5 µM

## CC(C)(C)c1ccc(C(=O)N[C@@H](Cc2ccc(-c3ncc(OCc4ccccc4)cn3)cc2)C(=O)O)cc1 [Compound 258]
  EC50: 5 to 10 µM

## CCCCCCCCOc1ccc(-c2cnc(-c3ccc(C[C@H](NC(=O)c4ccc(C(C)(C)C)s4)C(=O)O)cc3)nc2)cc1 [Compound 259]
  EC50: 0.8 to 2.5 µM
